Laboratory results published in article PMC11747041, “Study of an arginine- and tryptophan-rich antimicrobial peptide in peri-implantitis” (Frontiers in Bioengineering and Biotechnology, 2025).
No end group written: not given here.

Tests used:
RAW264.7 cells [1] = test: Cell proliferation, CCK-8 assay; type: cell-based, murine; settings: RAW264.7, 125 μg/mL, CCK-8, OD450
Method: RAW264.7 cells (murine macrophage cell line, ATCC, Manassas, VA, United States) and HGFs (ATCC, Manassas, VA, United States) were cultured (37°C, sterile atmosphere of 5% CO2) in DMEM (Gibco, United States) containing 10% (v/v) fetal bovine serum (FBS, Solarbio Co., Ltd., Beijing, China) and 1% penicillin/streptomycin (Gibco, Carlsbad, CA).
We assessed cell growth using the Cell Counting Kit-8 (CCK-8) assay ([Chen et al., 2022]). Cells (1,000 cells/well) were seeded in a 96-well plate. After 24 h, the cells were treated with VR-12 (7.81–125 μg/mL, serial two-fold dilution) for 1, 3, 5, and 7 days. The wells without VR-12 were used as blank controls. Cells were incubated using the CCK-8 kit (New Cell&Molecular Biotech Co., Ltd., Suzhou, China), and the absorbance was measured at OD450.

[2] = tested on: Fusobacterium nucleatum (ATCC 25586); type: cell-based; settings: ATCC 25586, 48 h
Method: (§1) Streptococcus gordonii (ATCC 10558) is a facultative anaerobic bacterium, Fusobacterium nucleatum (ATCC 25586) and Porphyromonas gingivalis (BNCC 353909) are obligate anaerobic bacteria. The effectiveness of VR-12 in suppressing bacterial proliferation was assessed using the standard broth dilution method ([Tang et al., 2022]). Various concentrations of VR-12 (1,000–7.8 μg/mL, serial two-fold dilution) were mixed with liquid medium broth containing bacteria (1 × 10^6 CFU/mL) at a ratio of 1:1, with an overall volume of 200 µL. A blank control was established using a 200 µL PBS solution, whereas a negative control was prepared by combining 100 µL PBS solution with 100 µL of bacterial culture (1 × 10^6 CFU/mL). The bacterial cultures were incubated in liquid medium for 24/48 h at 37°C, with daily observation of the bacterial sediment accumulation at the base of the well. MIC refers to the minimal concentration of peptide that induces a clear liquid and no visible bacterial growth in the well. The bacterial suspension in the well with a concentration greater than the MIC was pipetted evenly and 10 µL of the liquid was extracted from the well and transferred to agar plates and incubated for 24/48 h for MBC determination.

[3] = tested on: Porphyromonas gingivalis (BNCC 353909); type: cell-based; settings: 48 h
Method: as §1

[4] = tested on: Streptococcus gordonii (ATCC 10558); type: cell-based; settings: ATCC 10558, 48 h
Method: as §1

RAW264.7 cells [5] = test: Live/dead assay (calcein AM/PI); type: cell-based, murine; settings: RAW264.7, 62.5 μg/mL, 24 h, vs untreated cells
Method: (§2) A total of 5 × 10^4 cells per well were inoculated into 24-well plates. After 24 h, the cells were exposed to two different types of culture medium: regular medium and medium supplemented with VR-12 (62.5 μg/mL). Following a 24-hour incubation period, the cells were incubated with 200 µL of fresh medium containing calcein AM solution and propidium iodide (PI; Beyotime, Shanghai, China) solution, protected from light for 20 min at room temperature. The observations were conducted using inverted fluorescence microscopy (IX71, Olympus, Japan) and images were captured for documentation purposes.

HGFs = test: Live/dead assay (calcein AM/PI); type: cell-based, human; settings: 62.5 μg/mL, 24 h, vs untreated cells
Method: as §2

rat red blood cells = settings: 125 μg/mL (maximum concentration examined), rat erythrocytes 5% (v/v) suspension, 37°C, 1.5 h, OD540, 1% Triton X-100 positive control
Method: Initially, the cells underwent three washing cycles with PBS, followed by centrifugation at 1,000 rpm for 10 min at ambient temperature. After removing the supernatant, a suspension of cells at a concentration of 5% (v/v) was prepared using 0.9% NaCl solution (w/v). Subsequently, 100 μL of peptides at varying concentrations (7.81–125 μg/mL, serial two-fold dilution) were combined with 100 μL of the red blood cell suspensions. The mixture underwent incubation at 37°C for a duration of 1.5 h, after which it was subjected to centrifugation at 1,000 rpm for 5 min, and measurement of absorbance at OD540.1% Triton X-100 and NaCl (0.9%) were used as positive and negative controls, respectively. The hemolysis rate (HR) was determined by employing this formula: HR%=ODt−ODn/ODp−ODn×100% where ODp, ODn and ODt were the absorbance values of the positive control group, the negative control group and the test group, respectively.

VRLWVRVRRWRR-NH2 [VR-12]
Inhibition rate (RAW264.7 cells [1]): approximately 50% | MBC [2]: 125 µg/mL | MIC [2]: 62.5 µg/mL | MBC [3]: 125 µg/mL | MIC [3]: 62.5 µg/mL | MBC [4]: 62.5 µg/mL | MIC [4]: 31.25 µg/mL | Cell viability by live/dead staining (RAW264.7 cells [5]): no significant difference in cell viability | α-helix + β-sheet proportion: 31.5% | Cell viability by live/dead staining (HGFs): no significant difference in cell viability | Hemolysis rate (rat red blood cells): 3.27%
